Test results taken from patent publication US8124657B2, “Metallofullerols and their applications for preparation of medicine for inhibition of tumor growth” (Institute of High Energy Physics Chinese Academy of Sciences, priority 2005, dated 2012).
Marks after values point to notes of the source that are not given here.

Columns and labels:
[1] = Serum liver and kidney function markers in H22 tumor-bearing mice; type: in vivo
Method: In another aspect, the invention of hydrolated metallofullerene nanoparticles low toxicity in vivo. Liver function was evaluated with serum levels of total bilirubin levels (TBIL), alanine aminotransferase (ALT) and aspartate aminotransferase (AST). Nephrotoxicity was determined by blood urea nitrogen (BUN) and creatinine (Cr). For instance, the ALT levels of saline-treated groups are almost 4 times of the normal mean value. These indicate that implantation of H22 hepatoma itself in mice has harmed the functions of liver and kidney before treatments. […] After nanoparticle-treatment, the activities of ALT and AST (P<0.01) are reduced by 40% compared with saline control.
Table 2 is the serum TBIL, ALT, AST, and creatinine levels in tumor-bearing mice associated with metallofullerol treatment.

[2] = test system: MCF-7 human breast carcinoma
Method: Athymic BALB/c nu/nu female mice (weighing 16.0±1.0 g) were acclimated in the controlled environment (22±1° C. in temperature, 60±10% in humidity and a 12 h light/dark cycle) with free access to sterile distilled water and commercial laboratory complete food containing no pathogens. All animal experiments were performed in compliance with local ethics committee. The human beast cancer MCF-7 cell line was provided by the Cancer Institute and Cancer Hospital, Chinese Academy of Medical Sciences. The tumor bearing nude mice (female) were randomly divided into three groups, twelve in each group. […] A currently used clinical antitumor agent, Paclitaxel, was used as the positive control. Paclitaxel was given 4 times at intervals of 3 days at the dose of 10 mg/kg; when it was not injected, saline solution was injected instead of it. 0.9% saline solution was used as a negative control in the antitumor experiment. The whole administration process lasted 14 days after the starting point. The body weight and tumor size were used as two basic parameters in the experiments, and tumor growth and body weight curve were prepared as a function of time. Tumor weight was calculated according to the formula: Tumor weight (mg)=length (mm)×(width (mm))^2/2.

[3] = test system: H22 hepatoma tumor tissues; test: HE staining of tumor tissues of H22 tumor-bearing mice; type: in vivo
Text: The tumor morphology of HE staining of paraffin-embedded sections of tumor tissues in nanoparticle-treated, CTX-treated and the control groups, are shown in FIG. 9. In the saline control group, tumor cells heavily proliferated, arrayed regularly, and grievously invaded surrounding musculature (FIGS. 9A and B). […] When […] H22 liver tumors developed subcutaneously in mice, the envelope surrounding the neoplastic tissues, mainly composed of capillary vessels, fibrosis and lymphadenoid tissues were formed (FIG. 9C). […] In the [Gd@C82(OH)22]n-treated groups, lymphocyte hyperplasia (lymphopoiesis) and aggregated follicles around the transplanted tumor tissues were clearly seen (FIG. 9C). But in the CTX-treated mice, this envelope of fibroblasts associated with sporadic neutrophil cells was small so that it could not completely enclose the entire tumor tissues. Unlike in groups of the nanoparticle-treatment, the tumor invasion into surrounding normal muscle cells still existed in the CTX-treatment groups; although necrosis of tumor tissue was observed (FIGS. 9E and F).

H22 hepatoma = test: Antitumor activity on murine H22 hepatoma implanted subcutaneously in Kunming mice; type: in vivo; conditions: for Tumor Weight: mean±SEM
Method: Antitumor studies of hydroxylated metallofullerene nanoparticles were performed on Kunming mice (female, adult, 4 weeks at the start of the experiment, body weight ranging from 20 to 22 g). The mice were subcutaneously implanted with 1×10^6 cells of H22 hepatoma (in 100 μl of saline) in each mouse at the right hind leg. Primary tumors (before administration of antitumor agents) were measured with calipers. The end point of the experiment was determined by the diameter of their leg loaded with tumor up to 2 or 2.2 centimeters. The size of tumor was monitored by daily measurement. Tumor growth curve was obtained by the diameter of the tumor as a function of the time.
The 40 mice of weight ranging from 20 to 22 g were randomly divided into 6 groups. The tumor-bearing mice were then systemically treated with hydroxylated metallofullerene nanoparticles saline solution by intraperitoneal injections once a day. Two doses of hydroxylated metallofullerene nanoparticles, 114 and 228 μg/kg corresponding to 1×10^−7 and 2×10^−7 mol/kg, respectively, were used in the experiment. The currently clinic antineoplastic agent CTX was used for the positive control, with a dose 30 mg/kg (1×10^−4 mol/kg, MW 279.1) of the currently clinic use for cancer therapy. Because of its side effects, treatments by 1×10^−4 and 5×10^−[…] of CTX continued for the first 7 days. Each mouse was administrated intraperitoneally (i.p.) a single dose of 0.2 ml per day from the second day of inoculation and continued to the day before sacrifice. The change of the tumor size was precisely measured every 24 hours.
Table 1 is the tumor weights (mean±SEM, Table 1) from 5-7 mice in each group. FIG. 1 is the Inhibition curve of hepatoma growth in mice by treatment with metallofullerol nanoparticles in two independent experiments. The growth of tumor size was monitored through measuring the diameter of the tumor every 24 hours. Tumor volumes were then calculated according to the formula: V=4πr^3/3. Tumor growth curve was obtained by the diameter of the tumor.

[4] = Dosage I (Low): CTX 5 × 10^−5 mol/kg/day i.p., n = 6
[5] = Dosage II (High): CTX 1 × 10^−4 mol/kg/day i.p., n = 11

With `O=P1(N(CCCl)CCCl)NCCCO1` (centres unmarked) [CTX] the “Change of serum ALT versus saline” value ([1]; CTX-treated) was “not reduced, but even slightly increased”, the “Serum ALT” value ([1]; high dose group) was 152.2 ± 71.5 IU/L and the “Serum AST” value ([1]; high dose group) was 337 ± 53.7 ^a IU/L. The “Serum Creatinine” value ([1]; high dose group) was 51.0 ± 3.3 µmol/L, the “Serum TBIL” value ([1]; high dose group) was 1.66 ± 0.59 µmol/L and the “Change of serum concentrations of TBIL, BUN and Cr” value ([1]; i.p. injections) was “do not significantly changed”. For the same compound, the “Inhibition Efficiency” value ([2]; CTX 71.6 μmol/kg/day, N = 10, nude mice) was 47.0%, the “Immune responses in tumor tissues (HE staining)” value [3] was “not observed” and the “Tumor necrosis in HE-stained tumor sections” value [3] was “evidently induced tumor necrosis”. The “Inhibition Efficiency” value (H22 hepatoma; [4]) was 52.0%, the “Tumor Weight” value (H22 hepatoma; [4]) was 1.80 ± 0.41 g and the “Inhibition Efficiency” value (H22 hepatoma; [5]) was 67.5%. The “Tumor Weight” value (H22 hepatoma; [5]) was 1.22 ± 0.86 g.

With `CC(=O)O[C@H]1C(=O)[C@@]2(C)[C@H]([C@H](OC(=O)c3ccccc3)[C@]3(O)C[C@H](OC(=O)[C@H](O)[C@@H](NC(=O)c4ccccc4)c4ccccc4)C(C)=C1C3(C)C)[C@]1(OC(C)=O)CO[C@@H]1C[C@@H]2O` [Paclitaxel] the Mortality of mice ([2]; MCF-7 tumor-bearing nude mice under treatment) was 16.7%.
